Measured values reported in patent US9018395B2, “Pyrazolopyridine and pyrazolopyrimidine derivatives as melanocortin-4 receptor modulators” (Université de Montréal, priority 2011, dated 2015).

Biological target: T1, wild-type human melanocortin 4 receptor (WT-hMC4R) (Homo sapiens, UniProt P32245)
T1 construct: expressed in transfected cells; cDNA from UMR cDNA resource center
Experiment: Cyclic AMP assay (HTRF), antagonist competition against NDP-α-MSH
Format: cell-based
Conditions: HEK293T cells expressing double-tagged WT-hMC4R; cAMP accumulation; 1 hour compound then 4 nM NDP-α-MSH 30 min
Description: Intracellular cyclic 3′-5′ adenosine monophosphate (cAMP) accumulation was measured using a competitive immunoassay based on HTRF (Homogeneous Time-Resolved Fluorescence) technology (cAMP dynamic-2, Cis-Bio).
HEK293T stable cell line expressing double-tagged WT-hMC4R construct were collected and washed in cAMP buffer (1XD-PBS pH 7.4, 0.1% glucose). 40,000 cells/well were then dispensed in 96-well plates in cAMP buffer [1XD-PBS, 1% BSA, 0.1% Glucose, 0.75 mM 3-isobutyl-1methyl-xanthine (IBMX, Sigma)] and incubated either for antagonist competition assay: 1 hour at 37° C. with various concentrations of compound [0.01 nM-10 μM] followed by 30 min incubation at 37° C. with 4 nM of NDP-α-MSH (Sigma) or for agonist assay: 1 hour at 37° C. with various concentrations of compound [0.01 nM-10 μM]. 10,000 cells were transferred in 384-well plates, lysed and incubated with cAMP labeled with the dye d2 and anti-cAMP M-Antibody labeled with Cryptate following the manufacturer's protocol.
Reading of HTRF signal was performed on Artemis TR-FRET plate reader (Cosmo Bio).
All curve fitting was conducted using non-linear regression analyses from PRISM (version 4.0c, GraphPad Inc.) and the determination of Rmax and EC50 or IC50 parameters were obtained from sigmoidal dose-response phase (variable slope) equation.
A cDNA encoding a wild-type human MC4R with a 3 tandem copies of Hemaglutinine (HA) epitote sequence from UMR cDNA resource center was modified using known techniques in the art (e.g., PCR, cloning) to fused in frame at the C-terminal a venus-Yellow Fluorescent Protein (YFP) cDNA.
The resultant cDNA was then subcloned in eukaryotic expression vector, e.g. pcDNA 3.1(+) (Invitrogen).
The double tagged WT-hMC4R was transfected in HEK293T cells with lipofectamine (Invitrogen) following the manufacturer's instructions and permanently transfected clonal cell lines were selected by resistance to the neomycin analog G418.
HEK293T stable cell line expressing wild-type human melanocortin 4 receptor (WT-hMC4R) containing an N-terminal 3xHA epitope tag and an intracellular C-terminal venus-yellow fluorescent protein (v-YFP) were maintained at 37° C. in humidified air containing 5% CO2 in Dulbecoo's modified Eagle's medium (DMEM) supplemented with 10% fetal bovine serum (FBS), 100 U/ml penicillin/streptomycin (DMEM complete/10% FBS). Cells were generally at 70%-80% confluence on the day of assay.

T1 sequence (P32245 whole entry): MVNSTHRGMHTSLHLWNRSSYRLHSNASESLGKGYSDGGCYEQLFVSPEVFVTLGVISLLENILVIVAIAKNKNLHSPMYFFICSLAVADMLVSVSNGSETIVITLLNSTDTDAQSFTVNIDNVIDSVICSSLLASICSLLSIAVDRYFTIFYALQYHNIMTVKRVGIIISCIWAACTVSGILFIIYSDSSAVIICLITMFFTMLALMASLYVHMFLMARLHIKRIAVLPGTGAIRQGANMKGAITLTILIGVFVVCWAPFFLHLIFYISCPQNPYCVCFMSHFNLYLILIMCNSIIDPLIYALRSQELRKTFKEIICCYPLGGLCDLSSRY

In the case of `COC(=O)c1ccccc1-c1nn2ccc(C(=O)N(CCC(C)C)CCC(C)C)cc2c1CCCN1CCCCC1` [Example 39], the IC50 is reported as 1000 to 5000 nM.
`COc1ccc(Cl)cc1-c1nn2ccc(C(=O)N(CCC(C)C)CCC(C)C)cc2c1/C=C/CN1CCCCC1` [Example 113] showed an IC50 of 1000 to 5000 nM.
Work on `CC(C)CCN(CCC(C)C)C(=O)c1ccn2nc(-c3ccccc3Br)c(/C=C/CN3CCCCC3)c2c1` [Example 34] yielded an IC50 of 1000 to 5000 nM.
`CC(C)CCN(CCC(C)C)C(=O)c1ccn2nc(-c3ccc(Cl)cc3)c(CCCN3CCCCC3)c2c1` [Example 11, 2-(4-Chlorophenyl)-N,N-diisopentyl-3-(3-(piperidin-1-yl)propyl)pyrazolo[1,5-a]pyridine-5-carboxamide] was tested, and the IC50 was 1000 to 5000 nM.
Work on `CCCCCN(CCCCC)C(=O)c1ccn2nc(-c3ccc(F)cc3)c(CCCN3CCCCC3)c2c1` [Example 50] yielded an IC50 of 1000 to 5000 nM.
Compound `CC(C)CCN(CCC(C)C)C(=O)c1ccn2nc(-c3ccc(OCc4ccccc4)cc3)c(/C=C/CN3CCCCC3)c2c1` [Example 76] has an IC50 of 1000 to 5000 nM.
Work on `CC(C)CCN(CCC(C)C)C(=O)c1ccn2nc(-c3cccc(-c4nnn[nH]4)c3)c(CCCN3CCCCC3)c2c1` [Example 94] yielded an IC50 of 500 to 1000 nM.
With `COc1ccc(-c2nn3ccc(C(=O)N(CCC(C)C)CCC(C)C)cc3c2CCN2CCCCC2)cc1` [Example 149, N,N-diisopentyl-2-(4-methoxyphenyl)-3-(2-(piperidin-1-yl)ethyl)pyrazolo[1,5-a]pyridine-5-carboxamide] the IC50 was 5000 to 15000 nM.
With `CC(C)CCN(CCC(C)C)C(=O)c1ccn2nc(C(C)(C)C)c(/C=C/CN3CCCCC3)c2c1` [Example 128] the IC50 was 1000 to 5000 nM.
`CC(C)CCN(CCC(C)C)C(=O)c1ccn2nc(Br)c(/C=C/CN3CCCCC3)c2c1` [Example 132] was tested, and the IC50 was 1000 to 5000 nM.
For `CN=C(c1ccn2nc(-c3ccccc3)c(CCCN3CCCCC3)c2c1)N(CCC(C)C)CCC(C)C` [Example 165, N,N-diisopentyl-N′-methyl-2-phenyl-3-(3-(piperidin-1-yl)propyl)pyrazolo[1,5-a]pyridine-5-carboximidamide], the IC50 was < 500 nM.
For `CCCCCN(CCCCC)C(=O)c1ccn2nc(-c3ccc(C)cc3)c(CCCN3CCCCC3)c2c1` [Example 62], the IC50 was 1000 to 5000 nM.
`CC(C)CCN(CCC(C)C)C(=N)c1ccn2nc(-c3ccccc3)c(CCCN3CCCCC3)c2c1` [Example 127] gave an IC50 of 500 to 1000 nM.
With `CC(C)CCN(CCC(C)C)C(=O)c1ccn2nc(-c3ccc(C(=O)O)cc3)c(/C=C/CN3CCCCC3)c2c1` [Example 24] the IC50 was 1000 to 5000 nM.
With `Cc1nc(-c2ccc(-c3nn4ccc(C(=O)N(CCC(C)C)CCC(C)C)cc4c3CCCN3CCCCC3)cc2)no1` [Example 135] the IC50 was < 500 nM.
`COc1ccc(-c2nn3ccc(C(=O)N(CCC(C)C)CCC(C)C)cc3c2CCCN(C)C)cc1` [Example 18] was tested, and the IC50 was 5000 to 15000 nM.
Compound `CC(C)CCN(CCC(C)C)C(=O)c1ccn2nc(-c3ccc(C(=O)O)cc3)c(CCCN3CCCCC3)c2c1` [Example 75] has an IC50 of 1000 to 5000 nM.
Work on `CCOc1ccc(-c2nn3ccc(C(=O)N(CCC(C)C)CCC(C)C)cc3c2/C=C/CN2CCC(F)(F)CC2)cc1` [Example 79] yielded an IC50 of 5000 to 15000 nM.
`Cc1ccc(-c2nn3ccc(C(=O)N(CCC(C)C)CCC(C)C)cc3c2CCCN2CCCCC2)cc1` [Example 61] was tested, and the IC50 was < 500 nM.
`CC(C)CCN(CCC(C)C)C(=N)c1ccn2nc(-c3ccc(C(N)=O)cc3)c(CCCN3CCCCC3)c2c1` [Example 126] was tested, and the IC50 was < 500 nM.
In the case of `CCCN(CC1CC1)C(=O)c1ccn2nc(-c3ccc(OC)cc3)c(CCCN3CCCCC3)c2c1` [Example 27], the IC50 is reported as 5000 to 15000 nM.
In the case of `CC(=O)c1ccc(-c2nn3ccc(C(=O)N(CCC(C)C)CCC(C)C)cc3c2CCCN2CCCCC2)cc1` [Example 47, 2-(4-Acetylphenyl)-N,N-diisopentyl-3-(3-(piperidin-1-yl)propyl)pyrazolo[1,5-a]pyridine-5-carboxamide], the IC50 is reported as 500 to 1000 nM.
In the case of `CC(C)CCN(CCC(C)C)C(=O)c1ccn2nc(-c3cccc(C(N)=O)c3)c(CCCN3CCCCC3)c2c1` [Example 90], the IC50 is reported as < 500 nM.
Work on `CCCCCN(CCCCC)C(=O)c1ccn2nc(-c3ccc(OC)cc3)c(CCCN3CCCCC3)c2c1` [Example 21] yielded an IC50 of 1000 to 5000 nM.
`CC(C)CCN(CCC(C)C)C(=O)c1ccn2nc(-c3ccc(-c4nnn[nH]4)cc3)c(CCCN3CCCCC3)c2c1` [Example 98] gave an IC50 of 1000 to 5000 nM.
`CC(C)CCN(CCC(C)C)C(=S)c1ccn2nc(-c3ccccc3)c(CCCN3CCCCC3)c2c1` [Example 143] was tested, and the IC50 was 1000 to 5000 nM.
Compound `CC(C)CCN(CCC(C)C)C(=O)c1ccn2nc(-c3ccc(F)cc3)c(/C=C/CN3CCCCC3)c2c1` [Example 52] has an IC50 of 500 to 1000 nM.
For `COc1ccc(-c2nn3ccc(C(=O)N(CCC(C)C)CCC(C)C)cc3c2/C=C/CN2CCC(C)CC2)cc1` [Example 145], the IC50 was < 500 nM.
`COc1ccc(Nc2nn3ccc(C(=O)N(CCC(C)C)CCC(C)C)cc3c2C(=O)NCCN2CCCCC2)cc1` [Example 152] was tested, and the IC50 was 500 to 1000 nM.
With `COc1ccccc1-c1nn2ccc(C(=O)N(CCC(C)C)CCC(C)C)cc2c1CCCN1CCCCC1` [Example 151] the IC50 was 1000 to 5000 nM.
In the case of `CCCCN(C/C=C/c1c(-c2ccc(OC)cc2)nn2ccc(C(=O)N(CCCC)CCCC)cc12)CCCC` [Example 110], the IC50 is reported as 5000 to 15000 nM.
Compound `COc1ccc(-c2nn3ccc(C(=O)N(CCC(C)C)CCC(C)C)cc3c2CCCN2CCCC(F)C2)cc1` (stereo not drawn) [Example 161] has an IC50 of 1000 to 5000 nM.
Work on `COc1ccc(-c2nn3ccc(C(=O)N(CCC4CC4)CCC4CC4)cc3c2CCCN2CCCCC2)cc1` [Example 130] yielded an IC50 of 500 to 1000 nM.
Work on `COc1ccc(-c2nn3ccc(C(=O)N(CCC(C)C)CCC(C)C)cc3c2CCCN(C)C2CCNCC2)cc1` [Example 129] yielded an IC50 of 500 to 1000 nM.
Compound `CC(C)CCN(CCC(C)C)C(=O)c1ccn2nc(-c3ccc(Br)cc3)c(/C=C/CN3CCOCC3)c2c1` [Example 93] has an IC50 of 5000 to 15000 nM.
`COc1ccc(-c2nn3ccc(C(=O)N(CCC(C)C)CCC(C)C)cc3c2CCCN2CCCCC2C)cc1` (stereo not drawn) [Example 168] gave an IC50 of 500 to 1000 nM.
For `CC(C)CCN(CCC(C)C)C(=O)c1ccn2nc(-c3cccc(Br)c3)c(/C=C/CN3CCCCC3)c2c1` [Example 28], the IC50 was 1000 to 5000 nM.
For `CC(C)CCN(CCC(C)C)C(=O)c1ccn2nc(C(=O)Nc3ccc(C(=O)N4CCOCC4)cc3)c(CCCN3CCCCC3)c2c1` [Example 133], the IC50 was 5000 to 15000 nM.
In the case of `COc1ccc(-c2nn3ccc(C(=O)N(CCC(C)C)CCC(C)C)cc3c2CCCN2CCCCC2)cn1` [Example 164, N,N-diisopentyl-2-(6-methoxypyridin-3-yl)-3-(3-(piperidin-1-yl)propyl)pyrazolo[1,5-a]pyridine-5-carboxamide], the IC50 is reported as < 500 nM.
In the case of `COc1ccc(-c2nn3ccc(C(=O)N(CCC(C)C)CCC(C)C)cc3c2CCCN2CCCCC2)cc1OC` [Example 16], the IC50 is reported as < 500 nM.
In the case of `CCOc1ccc(-c2nn3ccc(C(=O)N(CCC(C)C)CCC(C)C)cc3c2CCCN2CCCCC2)cc1` [Example 22], the IC50 is reported as 500 to 1000 nM.
In the case of `CC(C)CCN(CCC(C)C)C(=O)c1ccn2nc(C(=O)N3CCOCC3)c(/C=C/CN3CCCCC3)c2c1` [Example 167], the IC50 is reported as 5000 to 15000 nM.
`CC(=O)c1ccc(-c2nn3ccc(C(=O)N(CCC(C)C)CCC(C)C)cc3c2CCCN2CCOCC2)cc1` [Example 121] was tested, and the IC50 was 1000 to 5000 nM.
`COc1ccc(-c2nn3ccc(C(=O)N(CCC(C)C)CCC(C)C)cc3c2C#CCN2CCCCC2)cc1` [Example 109] was tested, and the IC50 was 1000 to 5000 nM.
In the case of `COc1ccc(-c2nn3ccc(C(=O)N(CCC(C)C)CCC(C)C)cc3c2/C=C/CN2CCCCC2)cc1OC` [Example 14], the IC50 is reported as < 500 nM.
In the case of `CCCCN(CCCC)C(=O)c1ccn2nc(-c3ccc(F)cc3)c(/C=C/CN3CCCCC3)c2c1` [Example 51], the IC50 is reported as 1000 to 5000 nM.
For `CC(C)CCN(CCC(C)C)C(=O)c1ccn2nc(-c3cccc(C(N)=O)c3)c(/C=C/CN3CCCCC3)c2c1` [Example 77], the IC50 was < 500 nM.
`COC(=O)c1ccccc1-c1nn2ccc(C(=O)N(CCC(C)C)CCC(C)C)cc2c1/C=C/CN1CCCCC1` [Example 36] gave an IC50 of 1000 to 5000 nM.
Work on `COc1cccc(-c2nn3ccc(C(=O)N(CCC(C)C)CCC(C)C)cc3c2/C=C/CN2CCCCC2)c1` [Example 13] yielded an IC50 of 500 to 1000 nM.
`CCCCCN(CCCCC)C(=O)c1ccn2nc(-c3ccc(C)cc3)c(/C=C/CN3CCCCC3)c2c1` [Example 65] gave an IC50 of 1000 to 5000 nM.
`CC(C)CCN(CCC(C)C)C(=O)c1ccn2nc(-c3ccc(-c4noc(-c5ccccc5)n4)cc3)c(CCCN3CCCCC3)c2c1` [Example 134] was tested, and the IC50 was 1000 to 5000 nM.
For `CCCNCCCc1c(-c2ccc(OC)cc2)nn2ccc(C(=O)N(CCC(C)C)CCC(C)C)cc12` [Example 163], the IC50 was 1000 to 5000 nM.
Compound `COc1ccc(-c2nn3ccc(C(=O)N(CCC(C)C)CCC(C)C)cc3c2/C=C/CN2CCCCC2)cc1` [Example 3] has an IC50 of 500 to 1000 nM.
In the case of `COc1cc(-c2nn3ccc(C(=O)N(CCC(C)C)CCC(C)C)cc3c2CCCN2CCCCC2)cc(OC)c1OC` [Example 67], the IC50 is reported as < 500 nM.
